These are literature values, as cited in US20200316072A1, “COMPOUNDS FOR USE IN REGULATING FOLLICLE MATURATION” (AARHUS UNIVERSITET, priority 2017, published 2020).

Molecules are shown by their SMILES.

In this data set the test system is IGF/Akt/mTOR signaling pathway. As to conditions: stated as prior knowledge on the DPP4 inhibitor; test system not given.

As to `CC#CCn1c(N2CCC[C@@H](N)C2)nc2c1c(=O)n(Cc1nc(C)c3ccccc3n1)c(=O)n2C` [Linagliptin, 8-[(3R)-3-aminopiperidin-1-yl]-7-but-2-ynyl-3-methyl-1-[(4-methylquinazolin-2-yl)methyl]purine-2,6-dione], the “phosphorylated protein expression of IGF/Akt/mTOR signaling pathway” value was “alleviated”.
